For 18 molecules, IC50 results are on record in patent US9580416B2, “Inhibitors of Bruton's tyrosine kinase” (PHARMACYCLICS LLC, priority 2014, dated 2017).

Format in all cases: biochemical
In one experiment the target is T1, JAK3 (Homo sapiens, UniProt P52333).
T1 sequence (P52333 1-1124): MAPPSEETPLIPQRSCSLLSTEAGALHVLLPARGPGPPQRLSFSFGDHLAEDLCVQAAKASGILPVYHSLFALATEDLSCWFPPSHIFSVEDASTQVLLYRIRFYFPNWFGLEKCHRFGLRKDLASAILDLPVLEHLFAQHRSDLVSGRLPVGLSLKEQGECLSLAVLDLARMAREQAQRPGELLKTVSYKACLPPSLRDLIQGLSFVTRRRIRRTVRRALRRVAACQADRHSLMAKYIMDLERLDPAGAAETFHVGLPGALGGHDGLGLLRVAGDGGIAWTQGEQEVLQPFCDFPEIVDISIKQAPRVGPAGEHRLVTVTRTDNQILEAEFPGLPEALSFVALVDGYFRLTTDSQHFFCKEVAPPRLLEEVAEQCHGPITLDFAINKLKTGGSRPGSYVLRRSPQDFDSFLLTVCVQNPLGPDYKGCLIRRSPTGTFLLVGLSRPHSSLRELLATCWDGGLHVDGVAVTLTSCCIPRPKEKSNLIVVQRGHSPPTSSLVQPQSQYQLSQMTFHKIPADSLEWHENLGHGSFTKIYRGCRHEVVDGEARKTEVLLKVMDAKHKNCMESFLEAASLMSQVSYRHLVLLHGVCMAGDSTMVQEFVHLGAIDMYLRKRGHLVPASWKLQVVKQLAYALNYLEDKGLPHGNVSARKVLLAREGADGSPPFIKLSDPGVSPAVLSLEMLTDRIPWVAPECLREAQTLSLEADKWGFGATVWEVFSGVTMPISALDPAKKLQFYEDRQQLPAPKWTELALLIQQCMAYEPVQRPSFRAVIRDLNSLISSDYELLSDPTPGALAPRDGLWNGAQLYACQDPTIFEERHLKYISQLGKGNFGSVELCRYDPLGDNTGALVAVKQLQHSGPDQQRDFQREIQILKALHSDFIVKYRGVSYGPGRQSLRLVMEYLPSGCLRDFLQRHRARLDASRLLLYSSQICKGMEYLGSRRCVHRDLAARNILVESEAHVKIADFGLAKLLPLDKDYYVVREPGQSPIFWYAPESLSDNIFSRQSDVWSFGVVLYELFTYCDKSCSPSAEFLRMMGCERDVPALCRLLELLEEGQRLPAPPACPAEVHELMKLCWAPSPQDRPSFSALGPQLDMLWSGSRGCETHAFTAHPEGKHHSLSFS
Nature of the experiment: Inhibition of a panel of kinases, in vitro HotSpot kinase assay: JAK3. The method, then: (§1) The degree of inhibition of a panel of kinases is determined using the in vitro HotSpot kinase assay (purified enzymes, ^33P-ATP, an appropriate substrate and 1 uM ATP).

In another experiment the target is Lck (Homo sapiens, UniProt P06239). The experiment can be described thus: Lck kinase activity, TR-FRET assay. To be noted: read-out: LCK (IC50). The method, boiled down:
(§2)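 Enzyme (Btk 0.5 nM; Lck 6 nM) reacted 1 h with inhibitor, ATP at Km and biotin-peptide substrate in pH 7.4 buffer, 10% DMSO. Phosphopeptide detected by Eu-p-Tyr100 antibody plus streptavidin-APC (665/615 nm). IC50 calculated from fitted Ki(app) via ATP/Km correction plus half total enzyme.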
Background: Time-resolved FRET reads energy transfer from a long-lived donor to a nearby acceptor.

The target in the next experiment is EGFR (Homo sapiens, UniProt P00533). The experiment can be described thus: Inhibition of a panel of kinases, in vitro HotSpot kinase assay: EGFR. As for the experimental part:
as §1

The next experiment has as its target Btk (Homo sapiens, UniProt Q06187). The experiment can be described thus: Btk kinase activity, TR-FRET assay. Particulars: read-out: Btk (IC50). The gist of the method: as §2

Sequence of Lck (P06239 whole entry, species assumed): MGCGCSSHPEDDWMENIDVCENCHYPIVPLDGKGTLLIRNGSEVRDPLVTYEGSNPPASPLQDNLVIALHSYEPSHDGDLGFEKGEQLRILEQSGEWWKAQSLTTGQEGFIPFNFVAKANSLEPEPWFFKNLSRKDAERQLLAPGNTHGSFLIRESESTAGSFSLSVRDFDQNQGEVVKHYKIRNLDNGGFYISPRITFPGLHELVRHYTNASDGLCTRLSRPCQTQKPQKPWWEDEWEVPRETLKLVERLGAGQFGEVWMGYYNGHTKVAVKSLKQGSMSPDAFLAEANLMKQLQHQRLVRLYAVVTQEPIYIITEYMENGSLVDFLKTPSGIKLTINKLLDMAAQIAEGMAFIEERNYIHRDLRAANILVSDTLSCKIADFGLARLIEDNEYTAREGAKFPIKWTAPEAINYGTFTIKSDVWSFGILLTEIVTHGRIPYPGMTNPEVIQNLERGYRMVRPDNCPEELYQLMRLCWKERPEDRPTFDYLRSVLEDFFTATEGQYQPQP
Sequence of EGFR (P00533 25-1210): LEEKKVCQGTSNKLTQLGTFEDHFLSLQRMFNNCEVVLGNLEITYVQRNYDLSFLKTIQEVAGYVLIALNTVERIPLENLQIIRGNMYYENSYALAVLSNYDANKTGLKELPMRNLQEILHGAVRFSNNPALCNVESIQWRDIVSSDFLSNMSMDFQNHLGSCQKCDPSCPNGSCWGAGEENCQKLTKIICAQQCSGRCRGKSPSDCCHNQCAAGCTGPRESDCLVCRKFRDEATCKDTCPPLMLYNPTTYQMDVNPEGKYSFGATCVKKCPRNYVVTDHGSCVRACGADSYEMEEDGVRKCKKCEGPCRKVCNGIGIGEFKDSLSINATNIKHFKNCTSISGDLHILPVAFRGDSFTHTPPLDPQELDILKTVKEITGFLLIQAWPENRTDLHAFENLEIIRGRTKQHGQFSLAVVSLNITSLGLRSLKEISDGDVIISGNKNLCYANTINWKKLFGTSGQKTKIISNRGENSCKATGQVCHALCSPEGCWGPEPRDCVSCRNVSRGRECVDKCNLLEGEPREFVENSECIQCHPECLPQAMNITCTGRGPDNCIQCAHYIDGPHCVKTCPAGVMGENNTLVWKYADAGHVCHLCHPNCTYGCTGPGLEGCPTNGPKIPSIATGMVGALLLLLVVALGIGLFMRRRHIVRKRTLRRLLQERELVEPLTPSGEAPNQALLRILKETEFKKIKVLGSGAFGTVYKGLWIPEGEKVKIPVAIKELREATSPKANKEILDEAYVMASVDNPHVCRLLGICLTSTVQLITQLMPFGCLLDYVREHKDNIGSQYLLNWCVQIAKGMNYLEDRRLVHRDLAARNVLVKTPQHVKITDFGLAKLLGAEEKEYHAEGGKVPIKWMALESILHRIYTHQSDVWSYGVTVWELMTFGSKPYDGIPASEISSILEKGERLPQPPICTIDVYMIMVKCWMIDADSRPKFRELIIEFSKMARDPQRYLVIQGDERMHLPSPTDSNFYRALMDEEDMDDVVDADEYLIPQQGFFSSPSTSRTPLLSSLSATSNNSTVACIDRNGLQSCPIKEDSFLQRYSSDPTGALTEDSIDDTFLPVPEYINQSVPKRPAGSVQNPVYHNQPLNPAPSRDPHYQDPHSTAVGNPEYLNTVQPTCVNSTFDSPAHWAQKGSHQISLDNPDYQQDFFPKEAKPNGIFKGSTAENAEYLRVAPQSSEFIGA
Sequence of Btk (Q06187 whole entry): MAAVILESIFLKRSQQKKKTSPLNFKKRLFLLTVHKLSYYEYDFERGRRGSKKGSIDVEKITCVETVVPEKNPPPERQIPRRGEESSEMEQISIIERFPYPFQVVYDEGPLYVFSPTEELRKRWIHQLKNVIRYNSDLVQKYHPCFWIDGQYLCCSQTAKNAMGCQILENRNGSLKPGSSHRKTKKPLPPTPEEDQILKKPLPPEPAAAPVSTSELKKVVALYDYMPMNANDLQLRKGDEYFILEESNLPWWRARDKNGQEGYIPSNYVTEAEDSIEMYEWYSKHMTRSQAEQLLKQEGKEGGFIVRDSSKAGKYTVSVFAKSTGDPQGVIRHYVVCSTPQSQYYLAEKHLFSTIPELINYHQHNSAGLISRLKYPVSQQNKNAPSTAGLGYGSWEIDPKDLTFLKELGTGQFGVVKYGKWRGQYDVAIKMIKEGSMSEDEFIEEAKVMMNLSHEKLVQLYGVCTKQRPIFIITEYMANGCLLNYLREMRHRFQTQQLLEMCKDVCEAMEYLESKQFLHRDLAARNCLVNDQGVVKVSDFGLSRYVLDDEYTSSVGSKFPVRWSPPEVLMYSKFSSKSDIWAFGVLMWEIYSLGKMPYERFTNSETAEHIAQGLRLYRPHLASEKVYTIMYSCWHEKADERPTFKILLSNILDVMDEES

As a reminder, the IC50 is the midpoint of a concentration-inhibition curve. For `CN(C)CCCC(=O)N1CCC[C@@H](Nc2n[nH]c3nccc(Oc4ccc(C(=O)Nc5cc(C(F)(F)F)ccn5)cc4)c23)C1` [compound 161], the half-maximal inhibitory concentration (IC50) is > 10 µM at JAK3, < 0.1 µM on Lck, 0.1 to 1 µM on EGFR and < 0.1 µM on Btk.

As for `Cc1ccnc(NC(=O)c2ccc(Oc3ccnc4[nH]nc(N[C@@H]5CCCN(C(=O)c6ccccn6)C5)c34)cc2)c1` [compound 110, N-(4-methylpyridin-2-yl)-4-[(3-{[(3R)-1-(pyridine-2-carbonyl)piperidin-3-yl]amino}-1H-pyrazolo[3,4-b]pyridin-4-yl)oxy]benzamide], the IC50 on JAK3 is > 10 µM; at Lck, 1 to 10 µM; against EGFR, > 10 µM; on Btk it was < 0.1 µM.

In the case of `Cc1cnc(NC(=O)c2ccc(Oc3ccnc4[nH]nc(N[C@@H]5CCN(C(=O)C6CC6)C5)c34)cc2)s1` [compound 200, 4-[(3-{[(3R)-1-cyclopropanecarbonylpyrrolidin-3-yl]amino}-1H-pyrazolo[3,4-b]pyridin-4-yl)oxy]-N-(5-methyl-1,3-thiazol-2-yl)benzamide], the half-maximal inhibitory concentration (IC50) at JAK3 is > 10 µM; on Lck, 1 to 10 µM; against EGFR, 1 to 10 µM; at Btk it was < 0.1 µM.

For `C=CC(=O)N1CCC[C@@H](Nc2n[nH]c3nccc(Oc4ccc(C(=O)Nc5nc(C)c(C)s5)cc4)c23)C1` [compound 146], the IC50 at JAK3 was < 0.1 µM; at Lck, 0.1 to 1 µM; at EGFR it was 0.1 to 1 µM; on Btk, < 0.1 µM.

`Cc1cc(NC(=O)c2ccc(Oc3ccnc4[nH]nc(N[C@@H]5CCCN(C(=O)/C=C/CN(C)C6CC6)C5)c34)cc2)nn1C` [compound 165]: the IC50 on JAK3 is > 10 µM; on Lck it was > 10 µM; at EGFR it was > 10 µM; at Btk it was 0.1 to 1 µM.

With `Cc1ccnc(NC(=O)c2ccc(Oc3ccnc4[nH]nc(N[C@@H]5CCN(C(=O)C6(C#N)CC6)C5)c34)cc2)c1` [compound 279, (R)-4-(3-(1-(1-cyanocyclopropanecarbonyl)pyrrolidin-3-ylamino)-1H-pyrazolo[3,4-b]pyridin-4-yloxy)-N-(4-methylpyridin-2-yl)benzamide], the IC50 on JAK3 is > 10 µM; on Lck, 1 to 10 µM; against EGFR it was > 10 µM; at Btk it was < 0.1 µM.

As for `Cc1cc(NC(=O)c2cccc(Oc3ccnc4[nH]nc(N[C@@H]5CCCN(C(=O)C#CCO)C5)c34)c2)ccc1C(C)C` [compound 251, (R)-3-(3-(1-(4-hydroxybut-2-ynoyl)piperidin-3-ylamino)-1H-pyrazolo[3,4-b]pyridin-4-yloxy)-N-(4-isopropyl-3-methylphenyl)benzamide], the 50% inhibitory concentration (IC50) is < 0.1 µM against JAK3, 0.1 to 1 µM at Lck, < 0.1 µM against EGFR and < 0.1 µM at Btk.

As to `O=C(Nc1cc(C(F)(F)F)ccn1)c1ccc(Oc2ccnc3[nH]nc(N[C@@H]4CCCN(C(=O)C5CC5)C4)c23)cc1` [compound 173], the half-maximal inhibitory concentration (IC50) is > 10 µM on JAK3, 0.1 to 1 µM at Lck, 1 to 10 µM at EGFR and < 0.1 µM on Btk.

Take `Cc1ccnc(NC(=O)c2ccc(Oc3ccnc4[nH]nc(N[C@@H]5CCCN(C(=O)C6(C#N)CC6)C5)c34)cc2)c1` [compound 101, 4-[(3-{[(3R)-1-(1-cyanocyclopropanecarbonyl)piperidin-3-yl]amino}-1H-pyrazolo[3,4-b]pyridin-4-yl)oxy]-N-(4-methylpyridin-2-yl)benzamide]: the IC50 at JAK3 is > 10 µM; on Lck, 0.1 to 1 µM; against EGFR, > 10 µM; on Btk it was < 0.1 µM.

For the molecule `CN1CCc2sc(NC(=O)c3ccc(Oc4ccnc5[nH]nc(N[C@@H]6CCCN(C(=O)/C=C/CN(C)C7CC7)C6)c45)cc3)nc2C1` [compound 137, 4-[(3-{[(3R)-1-[(2E)-4-[cyclopropyl(methyl)amino]but-2-enoyl]piperidin-3-yl]amino}-1H-pyrazolo[3,4-b]pyridin-4-yl)oxy]-N-{5-methyl-4H,5H,6H,7H-[1,3]thiazol[4,5-c]pyridin-2-yl}benzamide], the half-maximal inhibitory concentration (IC50) was > 10 µM on JAK3, > 10 µM on Lck, > 10 µM at EGFR and 0.1 to 1 µM on Btk.

`COCCCC(=O)N1CCC[C@@H](Nc2n[nH]c3nccc(Oc4ccc(C(=O)Nc5cc(C)ccn5)cc4)c23)C1` [compound 274, (R)-4-(3-(1-(4-methoxybutanoyl)piperidin-3-ylamino)-1H-pyrazolo[3,4-b]pyridin-4-yloxy)-N-(4-methylpyridin-2-yl)benzamide]: the IC50 against JAK3 was > 10 µM; at Lck, 0.1 to 1 µM; against EGFR, > 10 µM; at Btk, < 0.1 µM.

Consider `Cc1ccnc(NC(=O)c2ccc(Oc3ccnc4[nH]nc(N[C@@H]5CCCN(C(=O)C(N)=O)C5)c34)cc2)c1` [compound 270, (R)-4-(3-(1-(2-amino-2-oxoacetyl)piperidin-3-ylamino)-1H-pyrazolo[3,4-b]pyridin-4-yloxy)-N-(4-methylpyridin-2-yl)benzamide], for which the IC50 against JAK3 was > 10 µM; at Lck, 0.1 to 1 µM; on EGFR, 0.1 to 1 µM; at Btk, < 0.1 µM.

As for `Cc1ccnc(NC(=O)c2ccc(Oc3ccnc4[nH]nc(N[C@@H]5CCCN(C(=O)CCN(C)C)C5)c34)cc2)c1` [compound 118, 4-[(3-{[(3R)-1-[3-(dimethylamino)propanoyl]piperidin-3-yl]amino}-1H-pyrazolo[3,4-b]pyridin-4-yl)oxy]-N-(4-methylpyridin-2-yl)benzamide], the IC50 was > 10 µM against JAK3, < 0.1 µM at Lck, 1 to 10 µM at EGFR and < 0.1 µM on Btk.

Consider `C=CC(=O)N1CCC[C@@H](Nc2n[nH]c3nccc(Oc4ccc(C(=O)Nc5cc(C)on5)cc4)c23)C1` [compound 178], for which the IC50 is 0.1 to 1 µM at JAK3, > 10 µM on Lck, 1 to 10 µM at EGFR and < 0.1 µM at Btk.

For `Cc1ccnc(NC(=O)c2ccc(Oc3ccnc4[nH]nc(NC5CCN(C#N)CC5)c34)cc2)c1` [compound 278, 4-(3-(1-cyanopiperidin-4-ylamino)-1H-pyrazolo[3,4-b]pyridin-4-yloxy)-N-(4-methylpyridin-2-yl)benzamide], the IC50 on JAK3 is > 10 µM; on Lck it was 0.1 to 1 µM; at EGFR it was 1 to 10 µM; at Btk, < 0.1 µM.

`Cc1ccnc(NC(=O)c2ccc(Oc3ccnc4[nH]nc(N[C@@H]5CCCN(C(=O)C6CCNCC6)C5)c34)cc2)c1` [compound 96, N-(4-methylpyridin-2-yl)-4-[(3-{[(3R)-1-(piperidin-4-carbonyl)piperidin-3-yl]amino}-1H-pyrazolo[3,4-b]pyridin-4-yl)oxy]benzamide]: the IC50 at JAK3 was > 10 µM; at Lck it was 0.1 to 1 µM; at EGFR it was 1 to 10 µM; on Btk, < 0.1 µM.

Take `CCOC(=O)N1CCC[C@@H](Nc2n[nH]c3nccc(Oc4ccc(C(=O)Nc5cc(C)ccn5)cc4)c23)C1` [compound 108, ethyl (3R)-3-[(4-{4-[(4-methylpyridin-2-yl)carbamoyl]phenoxy}-1H-pyrazolo[3,4-b]pyridin-3-yl)amino]piperidine-1-carboxalate]: the IC50 on JAK3 is > 10 µM; at Lck, 0.1 to 1 µM; against EGFR, 1 to 10 µM; at Btk, < 0.1 µM.

On to `CC#CC(=O)N1CCC[C@@H](Nc2n[nH]c3nccc(Oc4ccc(C(=O)Nc5ncc(CC)s5)cc4)c23)C1` [compound 177], for which the half-inhibitory concentration (IC50) on JAK3 is 1 to 10 µM; on Lck it was 0.1 to 1 µM; against EGFR, 1 to 10 µM; at Btk, < 0.1 µM.
